Tests used:
HL-60 = assay: In vitro cytotoxicity, MTS assay; type: cell-based; conditions: Homo sapiens, 72 h, read-out: Inhibitory concentration (IC50) HL-60
Method: (§1) Cladribine phosphoramidate derivatives were evaluated against six leukaemic cell lines (KG1, U937, K562, NB4R2, NB4 and HL-60) in vitro. Inhibitory concentration (IC50) at which 50% of the cells were no longer viable (calculated using MTS assay) was determined. Cells were treated with Cladribine and its 3′-phosphoramidate derivatives at concentrations between 100 μM and 0.02 μM by serial dilutions and incubated for 72 h at 37° C., 5% CO2 in a final volume of 90 μL. Twenty microliters of MTS reagent (Promega UK Ltd, Southampton, Hants) was added to the tumour cell cultures and reaction incubated for a further 4 h at 37° C., 5% CO2. The absorbance of the reaction after this time was read by spectrophotometry at 490 nm and the percentage of viable cells calculated relative to untreated control cells in the same assay.

NB4 = assay: In vitro cytotoxicity, MTS assay; type: cell-based; conditions: Homo sapiens, NB-4, 72 h, read-out: Inhibitory concentration (IC50) NB4
Method: as §1

KG1 = assay: In vitro cytotoxicity, MTS assay; type: cell-based; conditions: Homo sapiens, KG-1, 72 h, read-out: Inhibitory concentration (IC50) KG1
Method: as §1

NB4R2 = assay: In vitro cytotoxicity, MTS assay; type: cell-based; conditions: 72 h, read-out: Inhibitory concentration (IC50) NB4R2
Method: as §1

U937 = assay: In vitro cytotoxicity, MTS assay; type: cell-based; conditions: Homo sapiens, U-937, 72 h, read-out: Inhibitory concentration (IC50) U937
Method: as §1

K562 = assay: In vitro cytotoxicity, MTS assay; type: cell-based; conditions: Homo sapiens, 72 h, read-out: Inhibitory concentration (IC50) K562
Method: as §1

[1] = test system: MCF7 cells infected with Mycoplasma hyorhnis (HYOR); assay: Cytostatic activity in mycoplasma-infected cells; type: cell-based, human; conditions: for IC50: Homo sapiens, MCF7, 72 h, read-out: IC50 MCF7/HYOR; for Loss of potency: MCF7/HYOR versus MCF7
Description: (§2) Tumor cell cultures were infected with M. hyorhinis (ATCC 17981) and after two or more passages (to avoid bias by the initial inoculum) successful infection was confirmed using the MycoAlert™ mycoplasma detection kit (Lonza, Basel, Switzerland). Although this assay is only semi-quantitative, a maximal infection was observed 3 to 4 days after subcultivation of the mycoplasma-exposed cells. Chronically infected tumor cell lines are further referred to as Cell line.Hyor. All tumor cell cultures were maintained in Dulbecco's modified Eagle's medium (DMEM) (Invitrogen) supplemented with 10% fetal bovine serum (Biochrom AG, Berlin, Germany), 10 mm HEPES, and 1 mm sodium pyruvate (Invitrogen). Cells were grown at 37° C. in a humidified incubator with a gas phase containing 5% CO2.
(§3) The cytostatic activity of the test compounds was examined in mycoplasma-infected and uninfected cancer cell lines. When assaying the effect of M. hyorhinis infection, monolayer MCF7 and MCF7.Hyor cells were seeded in 48-well microtiter plates (Nunc™, Roskilde, Denmark) at 10,000 cells/well (Corning Inc., Corning, N.Y.) […]. After 24 h, the cells were exposed to different concentrations of test compound and allowed to proliferate for 72 h (to ensure sufficient cell proliferation and mycoplasma growth) after which the cells were trypsinized and counted using a Coulter counter (Analis, Suarlée, Belgium). Suspension cells (L1210, L1210.Hyor, FM3A, and FM3A.Hyor) were seeded in 96-well microtiter plates (Nunc) at 60,000 cells/well in the presence of different concentrations of test compound. The cells were allowed to proliferate for 48 h and then counted using a Coulter counter. The 50% inhibitory concentration (IC50) was defined as the compound concentration required to reduce cell proliferation by 50%.

MCF7 = assay: Cytostatic activity, cell counting (Coulter counter); type: cell-based; conditions: Homo sapiens, MCF7, 72 h, read-out: IC50 MCF7
Description: as §2, §3

[2] = test system: leukaemic stem cell compartment (Lin-/CD34+/CD38-/CD123+) within the KG1a cell line; assay: Immunophenotypic identification of the leukaemic stem cell compartment; type: cell-based; conditions: for Stem cell %: 72 h, LSC phenotype as percentage of all viable cells left, Control: 4%
Method: A further comparative analysis of the toxicity of compounds in the KG1a cell line over an extended dose range was carried out, and the relative effect assessed of the compounds on the leukaemic stem cell compartment within the KG1a cell line, across the entire dose range. Thus, experimental tests were performed on certain compounds of the present invention to assess their ability to target cancer stem cells in a leukaemic cell line. The acute myeloid leukaemia (AML) cell line, KG1a, was employed to assess the relative effect of compounds on the stem cell compartment. The KG1a cell line was selected because it manifests a minor stem cell-like compartment with a distinct immunophenotype (Lin^−/CD34^+/CD38^−/CD123^+).
(§4) Cells of the KG1a cell line were maintained in RPMI medium (Invitrogen, Paisley, UK) supplemented with 100 units/ml penicillin, 100 μg/ml streptomycin and 20% foetal calf serum. Cells were subsequently aliquoted (10^5 cells/100 μl) into 96-well plates and were incubated at 37° C. in a humidified 5% carbon dioxide atmosphere for 72 h in the presence of nucleoside analogues and their respective phosphoramidates at concentrations that were experimentally determined for each series of compounds. In addition, control cultures were carried out to which no drug was added. Cells were subsequently harvested by centrifugation and were analyzed by flow cytometry using the Annexin V assay.
KG1a cells were cultured for 72 h in the presence of a wide range of concentrations of each compound assayed. Cells were then harvested and labelled with a cocktail of anti-lineage antibodies (PE-cy7), anti-CD34 (FITC), anti-CD38 (PE) and anti-CD123 (PERCP cy5). The sub-population expressing a leukaemic stem cell (LSC) phenotype were subsequently identified and were expressed as a percentage of all viable cells left in the culture. […]

KG1a cell line = assay: Annexin V/propidium iodide apoptosis assay; type: cell-based; conditions: 72 h, dose required to kill 50% of the cells
Method: as §4
Measurement of in vitro apoptosis. Cultured cells were harvested by centrifugation and then resuspended in 195 μl of calcium-rich buffer. Subsequently, 5 μl of Annexin V (Caltag Medsystems, Botolph Claydon, UK) was added to the cell suspension and cells were incubated in the dark for 10 mins prior to washing. Cells were finally resuspended in 190 μl of calcium-rich buffer together with 10 μl of propidium iodide. Apoptosis was assessed by dual-colour immunofluorescent flow cytometry as described previously. Subsequently LD50 values (the dose required to kill 50% of the cells in a culture) were calculated for each nucleoside analogue and phosphoramidate.
The data obtained in these experiments were evaluated using one way ANOVA. All data was confirmed as Gaussian or a Gaussian approximation using the omnibus K2 test. LD50 values were calculated from the non-linear regression and line of best-fit analysis of the sigmoidal dose-response curves. All statistical analyses were performed using Graphpad Prism 6.0 software (Graphpad Software Inc., San Diego, Calif.).

L1210 = assay: Cytostatic activity, cell counting (Coulter counter); type: cell-based; conditions: Mus musculus, L1210, 48 h, read-out: IC50 L1210
Description: as §2, §3

[3] = test system: MCF-7 Mammary epithelial adenocarcinoma; assay: In vitro viability assay, CellTiterGlo; type: cell-based, human
Method: (§5) In vitro viability assay was performed to assess the effects of compounds on cell viability in selected cell lines over 72 h using the CellTiterGlo (CTG, Promega-G7573) assay. The tests were performed in duplicates with treatment of compounds at 9 points, 3.16 folds titration in 96 well plates over ˜72 h. The compound starting concentrations were […]. Cell viability assay using CellTiterGlo in 96-well plate were performed. Compounds were dissolved to 40 mM with thawed 100% DMSO. Compounds were serially diluted at 3.16-fold in thawed DMSO, and warmed to 37° C. before being dissolved in media (2 μl+200 μl). After compounds were dissolved in media, media containing compounds were warmed to 37° C. in incubator and then compounds in media were added to cell plates (50 μl+50 μl) in duplicates. The compounds' final concentrations were from 198 μM to 19.9 nM. Solubility of all compounds was checked and recorded again, then the plates were transferred to CO2 tissue culture incubator immediately and incubated for 3 days. DMSO final concentration is 0.5%.

[4] = test system: HEL92.1.7 Erythroleukaemia; assay: In vitro viability assay, CellTiterGlo; type: cell-based
Method: as §5

[5] = test system: Z-138 Mantle cell lymphoma; assay: In vitro viability assay, CellTiterGlo; type: cell-based
Method: as §5

[6] = test system: RL Non-Hodgkin's lymphoma; assay: In vitro viability assay, CellTiterGlo; type: cell-based; conditions: 72 h
Method: as §5

[7] = test system: HL-60 Promyelocytic leukaemia; assay: In vitro viability assay, CellTiterGlo; type: cell-based
Method: as §5

[8] = test system: KG-1 Acute myelogenous leukaemia; assay: In vitro viability assay, CellTiterGlo; type: cell-based
Method: as §5

[9] = test system: L1210 cells infected with Mycoplasma hyorhinis (HYOR); assay: Cytostatic activity in mycoplasma-infected cells; type: cell-based, mouse
Description: as §2, §3

| Compound | IC50 (HL-60) | IC50 (NB4) | IC50 (KG1) | IC50 (NB4R2) | IC50 (U937) | IC50 (K562) | IC50 [1] | Loss of potency [1] | IC50 (MCF7) | stem cell selectivity [2] | Stem cell % [2] | LD50 (KG1a cell line) | also measured |
| --- | --- | --- | --- | --- | --- | --- | --- | --- | --- | --- | --- | --- | --- |
| C[C@H](NP(=O)(Oc1ccccc1)OC1C[C@H](n2cnc3c(N)nc(Cl)nc32)O[C@@H]1CO)C(=O)OCc1ccccc1 (some centres unmarked) [Compound 19] | 0.1 µM | 0.24 µM | 0.38 µM | 0.11 µM | 0.03 µM | > 10 µM | 26 µM | 5-fold | 5.2 µM | exhibited stem cell selectivity | 3.1% | 0.83 μm |  |
| C[C@H](NP(=O)(Oc1cccc2ccccc12)OC1C[C@H](n2cnc3c(N)nc(Cl)nc32)O[C@@H]1CO)C(=O)OCc1ccccc1 (some centres unmarked) [Compound 18] | 0.39 µM | 0.07 µM | 0.31 µM | 1.29 µM | 0.01 µM | 5.14 µM |  |  |  | exhibited stem cell selectivity | 4% | 0.27 μm | targeting of LSCs when compared to cladribine [2]: showed preferential targeting of LSCs |
| C[C@H](NP(=O)(OC[C@H]1O[C@@H](n2cnc3c(N)nc(Cl)nc32)CC1O)Oc1ccccc1)C(=O)OCc1ccccc1 (some centres unmarked) [Y, reference compound] | 1.75 µM | 0.23 µM | 0.67 µM | 0.63 µM | 0.08 µM | 8.05 µM | 33 µM | 16-fold | 2.1 µM |  | 2% | 1.7 μm |  |
| C[C@H](NP(=O)(Oc1cccc2ccccc12)OC1C[C@H](n2cnc3c(N)nc(Cl)nc32)O[C@@H]1CO)C(=O)OCC(C)(C)C (stereo partly drawn) [Compound 6, 2-Chloro-2′-deoxyadenosine-3′-[1-naphthyl-(2,2-dimethylpropoxy-L-alaninyl)]phosphate] | 0.3 µM | 1 µM |  |  |  |  |  |  |  |  |  |  | IC50 (L1210): 1 µM; EC50 ([3]; Homo sapiens, MCF7, 72 h, read-out: EC50 (μM) Ab): 6.8 µM; Top Inhibition (%) ([3]; MCF-7, CellTiterGlo, 72 h): 102%; Top Inhibition (%) ([4]; HEL92.1.7, CellTiterGlo, 72 h): 98.6%; EC50 ([4]; Homo sapiens, HEL 92.1.7, 72 h, read-out: EC50 (μM) Ab): 0.07 µM; EC50 ([5]; Homo sapiens, Z-138, 72 h, read-out: EC50 (μM) Ab): 1.5 µM; Top Inhibition (%) ([5]; Z-138, CellTiterGlo, 72 h): 101%; Top Inhibition (%) ([6]; CellTiterGlo): 98.6%; EC50 ([6]; Homo sapiens, read-out: EC50 (μM) Ab): 0.29 µM; Top Inhibition (%) ([7]; HL-60, CellTiterGlo, 72 h): 96%; EC50 ([7]; Homo sapiens, HL-60, 72 h, read-out: EC50 (μM) Ab): 0.23 µM; EC50 ([8]; Homo sapiens, KG-1, 72 h, read-out: EC50 (μM) Ab): 1.2 µM; Top Inhibition (%) ([8]; KG-1, CellTiterGlo, 72 h): 98.6%; Loss of potency ([9]; L1210/HYOR versus L1210): 4-fold; IC50 ([9]; Mus musculus, L1210, 48 h, read-out: IC50 L1210/HYOR): 4 µM |
